Read-outs that look alike come from different tables or passages of the source.
Tests used:
[1] = system: influenza A virus (strain A/Kumamoto/Y5/67 H2N2); details: mouse, in vivo; cited from earlier work
[2] = system: influenza A virus (strain A/Puerto Rico/8/1934/H1N1); test: Viral load in lungs of PR8-infected mice by plaque assay on MDCK cells; type: in vivo, C57BL/6J mice; details: for Average viral load (pfu): substances in drinking water (experimental group also intraperitoneal injection)
[3] = system: influenza A virus (strain A/Hong Kong/X31/68 H3N2); details: lungs of infected mice, 1-MT in drinking water; cited from earlier work
[4] = system: influenza A virus (strain A/Aichi/2/1968 H3N2); details: 0.7 M arginine-containing solution, cited from earlier work
[5] = mice lungs, seventh day after intranasal inoculation with 200 pfu PR8 virus
[6] = mice lungs, seventh day after virus inoculation

CN=C(N)NCCC[C@H](N)C(=O)O.O=C(O)CC(O)(CC(=O)O)C(=O)O [Inhibitor group 1, L-NG-monomethyl arginine citrate]
production of NO-hemoglobin in the lungs [1]: inhibit | survival rate [1]: effectively increasing | Average viral load (pfu) ([2]; […]): 4.30 × 10^3 pfu | average viral load compared with the control group ([2]; mouse, in vivo): significantly lower

N=C(NO)NCC[C@H](N)C(=O)O [Inhibitor group 2, N^ω-hydroxy-nor-L-arginine acetate]
Average viral load (pfu) [2, 5]: 2.47 × 10^3 pfu | average viral load compared with the control group [2, 6]: significantly lower

Cn1cc(C[C@H](N)C(=O)O)c2ccccc21 [Inhibitor group 3, 1-methyl-tryptophan]
number of activated and functional CD4+ T-cells, influenza-specific CD8+ T-cells and effector memory cells [3]: increased significantly | Average viral load (pfu) [2, 5]: 4.37 × 10^3 pfu | average viral load compared with the control group [2, 6]: significantly lower

N=C(N)NCCC[C@H](N)C(=O)O [arginine]
virus inactivation effect ([4]; pH 4.5, on ice for 30 to 60 minutes): most potent virus inactivation effect | virus inactivation effect ([4]; pH 5.5, on ice for 30 to 60 minutes): no virus inactivation effect was detected
